Results as given in patent US8338616B2, “Thiazoliums and their use for treating protein aging associated diseases” (Beijing Molecule Science And Technology Co., Ltd., priority 2008, dated 2012).

Legend:
AGEs = settings: studies in rats, beagles (oral) and mice, CN200610002391.6; cited from earlier work
[1] = system: NaCl treated diabetic rats modeled with heart failure; assay: Chronic heart failure, first batch, ultrasonic cardiogram evaluation; type: in vivo, rat; settings: 10th week of administration; valsartan 10 mg/kg, compound A 18 mg/kg ig
Procedure: The pharmacodynamic evaluation was conducted by using a noninvasive ultrasonic cardiogram method.
Evaluation indexes: (1) morphology indexes: left ventricular posterior wall dimensions (LVPWd), left ventricular diastasis internal diameter (LVDd), end systolic diameter (LVDs); (2) functional indexes: ejection fraction (EF), shortening fraction (FS), ventricular early blood flow filling rate (E), atrial filling rate (A) and ratio of E/A; Doppler tissue image; at cardiac apical four chamber view, the valve ring of anterior mitral valve was used as sampling point, peak early diastolic velocity (Ea peak), peak late diastolic velocity (Aa peak), and Ea/Aa ratio reflected the systolic and diastolic motion of the whole left ventricle.
SPSS statistic software was used to analyze and treat data, and all data were expressed in mean±standard deviation (Mean±SD).

Row | Compound | breaking effect on AGEs (AGEs) | LVDd and LVDs vs model [1] | PWd vs model [1]
1 | Cc1csc[n+]1CC(=O)OCc1ccccc1.[Br-] [3-benzyloxycarbonylmethyl-4-methyl-thiazole-3-bromide] | excellent breaking effect on AGEs | – | –
2 | CCCCC(=O)N(Cc1ccc(-c2ccccc2-c2nnn[nH]2)cc1)[C@H](C(=O)O)C(C)C [valsartan, reference compound] | – | slight decrease | slight increase
